Experiment: xn = mol fraction of the nth substance listed
Details: 100 kPa

CCCCCC[n+]1ccn(C)c1.O=S(=O)([N-]S(=O)(=O)C(F)(F)F)C(F)(F)F + O=C1CCCO1
electrical conductivity [S/m]
Details | x2 = 0 | x2 = 0.1076 | x2 = 0.2973 | x2 = 0.4956 | x2 = 0.6996 | x2 = 0.8001 | x2 = 0.8456 | x2 = 0.9001 | x2 = 0.9493
293.15 K | 0.176 | 0.21 | – | 0.47 | 0.819 | 1.07 | 1.13 | – | –
298.15 K | 0.221 | – | 0.362 | 0.556 | 0.932 | 1.19 | 1.25 | 1.23 | –
303.15 K | – | 0.319 | 0.431 | – | 1.05 | 1.31 | 1.36 | – | 0.896
308.15 K | – | – | – | 0.751 | 1.17 | 1.44 | 1.49 | – | 0.968
313.15 K | 0.398 | – | – | 0.863 | – | 1.57 | – | 1.57 | 1.04
318.15 K | 0.467 | 0.539 | – | 0.979 | 1.46 | 1.71 | – | 1.69 | –
323.15 K | – | – | – | 1.11 | 1.61 | – | – | 1.8 | 1.17

CCCC[n+]1ccn(C)c1.O=S(=O)([N-]S(=O)(=O)C(F)(F)F)C(F)(F)F + O=C1CCCO1
x2 = 0
Details | electrical conductivity [S/m] | viscosity [mPa·s]
293.15 K | 0.337 | 62.1
308.15 K | 0.552 | 33.65
313.15 K | 0.64 | 28.28
318.15 K | 0.733 | 23.91
323.15 K | 0.835 | 20.64

Source: a compilation of properties of binary mixtures (doi:10.2298/jsc190413047v)
